The values below come from patent US7834009B2, “4-hydroxy-5,6-dihydro-1H-pyridin-2-one compounds” (Anadys Pharmaceuticals, Inc., priority 2007, dated 2010).

The target in the assay is HCV NS5B polymerase (Hepatitis C virus genotype 1b, UniProt P26663). The experiment in a line: biochemical. The settings on record: 20 nM enzyme, 0.6 μM GTP, 250 nM 5′biotinylated oligo (rG13)/poly rC, 75 min at 28° C. On the procedure:
Compounds were tested for HCV polymerase inhibition. Assays were performed in a 96-well streptavidin-coated FlashPlate using 20 nM enzyme, 0.5 μCi of [α-^33P]GTP, 0.6 μM GTP, and 250 nM 5′biotinylated oligo (rG13)/poly rC in 20 mM Tris-HCl, pH 7.5, 5 mM MgCl2, 5 mM dithiothreitol, 0.1 g/L bovine serum albumin, and 100 U/mL RNAse inhibitor. The reaction was stopped by aspiration after 75 min at 28° C. and the plate was washed several times. After washing and drying the plate, incorporated radioactivity was counted using a Microbeta scintillation counter. IC50 values were calculated relative to the uninhibited control and inhibition data were fitted to a 4-parameter IC50 equation.

HCV NS5B polymerase, sequence (P26663 2420-3010): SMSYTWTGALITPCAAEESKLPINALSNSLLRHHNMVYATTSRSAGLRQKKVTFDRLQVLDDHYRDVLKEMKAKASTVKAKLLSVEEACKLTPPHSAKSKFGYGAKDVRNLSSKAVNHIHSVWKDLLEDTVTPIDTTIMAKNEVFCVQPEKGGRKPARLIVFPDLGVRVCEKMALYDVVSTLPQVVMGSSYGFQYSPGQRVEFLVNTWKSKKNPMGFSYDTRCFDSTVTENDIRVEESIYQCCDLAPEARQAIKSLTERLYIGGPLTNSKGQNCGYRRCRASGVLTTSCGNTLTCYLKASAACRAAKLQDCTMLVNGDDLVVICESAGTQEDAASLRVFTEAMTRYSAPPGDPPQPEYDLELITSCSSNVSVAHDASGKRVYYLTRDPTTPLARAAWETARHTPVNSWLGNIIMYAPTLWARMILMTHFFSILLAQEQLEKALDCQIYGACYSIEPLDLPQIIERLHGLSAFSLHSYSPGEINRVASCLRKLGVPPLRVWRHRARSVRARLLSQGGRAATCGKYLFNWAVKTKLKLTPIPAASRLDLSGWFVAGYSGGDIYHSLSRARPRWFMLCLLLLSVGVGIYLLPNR

As usually defined, the IC50 is the concentration needed to halve the response being measured. A high value points to weaker potency in that assay. In turn, `CC(C)CCC1(C)C(O)=C(C2=NS(=O)(=O)c3cc(NS(C)(=O)=O)ccc3N2)C(=O)N2CCCC21` (centres unmarked) [Example 5, N-{3-[7-Hydroxy-8-methyl-8-(3-methyl-butyl)-5-oxo-1,2,3,5,8,8a-hexahydro-indolizin-6-yl]-1,1-dioxo-1,4-dihydro-1λ6-benzo[1,2,4]thiadiazin-7-yl}-methanesulfonamide] had an IC50 of under 100 nM.
The figure for `CC(C)CCC1(C)CN(N2CCCC2)C(=O)C(C2=NS(=O)(=O)c3cc(NS(C)(=O)=O)ccc3N2)=C1O` (centres unmarked) [Example 7, N-{3-[4-Hydroxy-5-methyl-5-(3-methyl-butyl)-2-oxo-1-pyrrolidin-1-yl-1,2,5,6-tetrahydro-pyridin-3-yl]-1,1-dioxo-1,4-dihydro-1λ^6-benzo[1,2,4]thiadiazin-7-yl}-methanesulfonamide] is under 100 nM; for `CC(C)CCN1CC(C)(C)C(O)=C(C2=NS(=O)(=O)c3cc(NS(C)(=O)=O)ccc3N2)C1=O` [Example 11, N-{3-[4-Hydroxy-5,5-dimethyl-1-(3-methyl-butyl)-2-oxo-1,2,5,6-tetrahydro-pyridin-3-yl]-1,1-dioxo-1,4-dihydro-1λ^6-benzo[1,2,4]thiadiazin-7-yl}-methanesulfonamide] it is 100 to 1000 nM.
On to `CC1(C)CN(C2CCCC2)C(=O)C(C2=NS(=O)(=O)c3cc(NS(C)(=O)=O)ccc3N2)=C1O` [Example 18, N-[3-(1-Cyclopentyl-4-hydroxy-5,5-dimethyl-2-oxo-1,2,5,6-tetrahydro-pyridin-3-yl)-1,1-dioxo-1,4-dihydro-1λ^6-benzo[1,2,4]thiadiazin-7-yl]-methanesulfonamide], for which the IC50 was in the range of 1000 to 4000 nM.
The same measure for `CC(C)=CCC1CN(C2CCCC2)C(=O)C(C2=NS(=O)(=O)c3cc(NS(C)(=O)=O)ccc3N2)=C1O` (centres unmarked) [Example 22, N-{3-[1-Cyclopentyl-4-hydroxy-5-(3-methyl-but-2-enyl)-2-oxo-1,2,5,6-tetrahydro-pyridin-3-yl]-1,1-dioxo-1,4-dihydro-1λ^6-benzo[1,2,4]thiadiazin-7-yl}-methanesulfonamide]: under 100 nM; for `CC#CCC1(C)CN(C2CCCC2)C(=O)C(C2=NS(=O)(=O)c3cc(NS(C)(=O)=O)ccc3N2)=C1O` (centres unmarked) [Example 26, N-[3-(5-But-2-ynyl-1-cyclopentyl-4-hydroxy-5-methyl-2-oxo-1,2,5,6-tetrahydro-pyridin-3-yl)-1,1-dioxo-1,4-dihydro-1λ^6-benzo[1,2,4]thiadiazin-7-yl]-methanesulfonamide]: 100 to 1000 nM.
`CC(C)(C)CCN1CC(C)(C2CCCC2)C(O)=C(C2=NS(=O)(=O)c3cc(NS(C)(=O)=O)ccc3N2)C1=O` (centres unmarked) [Example 30, N-{3-[5-Cyclopentyl-1-(3,3-dimethyl-butyl)-4-hydroxy-5-methyl-2-oxo-1,2,5,6-tetrahydro-pyridin-3-yl]-1,1-dioxo-1,4-dihydro-1λ^6-benzo[1,2,4]thiadiazin-7-yl}-methanesulfonamide] had an IC50 of under 100 nM.
The same measure for `CC1(c2ccccc2)CN(C2CCC2)C(=O)C(C2=NS(=O)(=O)c3cc(NS(C)(=O)=O)ccc3N2)=C1O` (centres unmarked) [Example 32, N-[3-(1-Cyclobutyl-4-hydroxy-5-methyl-2-oxo-5-phenyl-1,2,5,6-tetrahydro-pyridin-3-yl)-1,1-dioxo-1,4-dihydro-1λ^6-benzo[1,2,4]thiadiazin-7-yl]-methanesulfonamide]: 1000 to 4000 nM; for `CC(C)CCN1C(=O)C(C2=NS(=O)(=O)c3cc(NS(C)(=O)=O)ccc3N2)=C(O)C[C@@H]1c1ccccc1` [Example 49, N-{3-[4-Hydroxy-1-(3-methyl-butyl)-2-oxo-6(R)-phenyl-1,2,5,6-tetrahydro-pyridin-3-yl]-1,1-dioxo-1,4-dihydro-1λ^6-benzo[1,2,4]thiadiazin-7-yl}-methanesulfonamide]: 100 to 1000 nM; for `CC(C)CCC1CC(O)=C(C2=NS(=O)(=O)c3cc(NS(C)(=O)=O)ccc3N2)C(=O)N1C1CCCC1` (centres unmarked) [Example 53, N-{3-[1-Cyclopentyl-4-hydroxy-6-(3-methyl-butyl)-2-oxo-1,2,5,6-tetrahydro-pyridin-3-yl]-1,1-dioxo-1,4-dihydro-1λ^6-benzo[1,2,4]thiadiazin-7-yl}-methanesulfonamide]: 1000 to 4000 nM.
Molecule `CC(C)CCC1(CO)CN(C2CCCC2)C(=O)C(C2=NS(=O)(=O)c3cc(NS(C)(=O)=O)ccc3N2)=C1O` (centres unmarked) [Example 54, N-{3-[1-Cyclopentyl-4-hydroxy-5-hydroxymethyl-5-(3-methyl-butyl)-2-oxo-1,2,5,6-tetrahydro-pyridin-3-yl]-1,1-dioxo-1,4-dihydro-1λ^6-benzo[1,2,4]thiadiazin-7-yl}-methanesulfonamide] registered an IC50 of under 100 nM.
The figure for `CC(C)[C@H]1CC(O)=C(C2=NS(=O)(=O)c3cc(NS(C)(=O)=O)ccc3N2)C(=O)N1Cc1ccc(F)c(Cl)c1` [Example 55, N-{3-[1-(3-Chloro-4-fluoro-benzyl)-4-hydroxy-6(R)-isopropyl-2-oxo-1,2,5,6-tetrahydro-pyridin-3-yl]-1,1-dioxo-1,4-dihydro-1λ^6-benzo[1,2,4]thiadiazin-7-yl}-methanesulfonamide] is under 100 nM; for `CC(C)CC1CC(O)=C(C2=NS(=O)(=O)c3cc(NS(C)(=O)=O)ccc3N2)C(=O)N1C1CCCC1` (centres unmarked) [Example 56, N-[3-(1-Cyclopentyl-4-hydroxy-6-isobutyl-2-oxo-1,2,5,6-tetrahydro-pyridin-3-yl)-1,1-dioxo-1,4-dihydro-1λ^6-benzo[1,2,4]thiadiazin-7-yl]-methanesulfonamide] it is 1000 to 4000 nM.
The figure for `CC(C)CCC1(COCc2ccccc2)CN(C2CCCC2)C(=O)C(C2=NS(=O)(=O)c3cc(NS(C)(=O)=O)ccc3N2)=C1O` (centres unmarked) [Example 58, N-{3-[5-Benzyloxymethyl-1-cyclopentyl-4-hydroxy-5-(3-methyl-butyl)-2-oxo-1,2,5,6-tetrahydro-pyridin-3-yl]-1,1-dioxo-1,4-dihydro-1λ^6-benzo[1,2,4]thiadiazin-7-yl}-methanesulfonamide] is 1000 to 4000 nM.
